pIC50: −log10 of the molar value. Like-named read-outs stand apart in the source and are kept apart here.
Experiments:
[1] = tested on: BACE1 (Aβ40 from cells stably expressing Amyloid Precursor Protein); experiment: In vitro BACE1 cell-based assay (Aβ40 in conditioned medium, HTRF); details: for pIC50: Aβ40, 24 h incubation, read-out: BACE1 Cell IC50; for IC50: 24 h, read-out: BACE1 Cell IC50 (μM)
Procedure: In Vitro BACE1 Cell-Based Assay The cell-based assay measures inhibition or reduction of Aβ40 in conditioned medium of test compound treated cells expressing amyloid precursor protein. Cells stably expressing Amyloid Precursor Protein (APP) were plated at a density of 45K cells/well in 384 well plates (Corning/BioCoat 354663). The test compounds were then added to cells in 22-point dose response concentrations with the starting concentration being 62.5 μM. The compounds were diluted from stock solutions in DMSO and the final DMSO concentration of the test compounds on cells was 0.625%. The cells were cultivated overnight at 37° C. and 5% CO2 in DMEM supplemented with 10% FBS. After 24 h of incubation with the test compounds, the conditioned media was collected and the Aβ40 levels were determined using HTRF (Homogeneous Time Resolved Fluorescence). […] The HTRF to detect Aβ40 was performed in 384 well plates (Costar 3658). The antibody pair that were used to detect Aβ 40 from cell supernatants were ConfAb40 antibody (Amgen in-house) and biotinylated 6E10 (BIOLEGEND). As an alternative to ConfAb40, a commercially available antibody, Anti-beta Amyloid 1-40 antibody [BDI350] from Abcam, Cambridge, Mass. 02139-1517 (Product code: ab20068), may be used in this assay. […] The conditioned media was incubated with above antibodies and Streptavidin Allophycocyanin Conjugate for 30-60 minutes at 23° C. The final readout was performed on Envision from PerkinElmer.

human recombinant BACE1 = human recombinant BACE1 (Homo sapiens (Human), UniProt P56817); experiment: In vitro enzymatic BACE1 FRET assay; assay type: biochemical; details: read-out: BACE1 Enzyme IC50
human recombinant BACE1, sequence (P56817 46-501): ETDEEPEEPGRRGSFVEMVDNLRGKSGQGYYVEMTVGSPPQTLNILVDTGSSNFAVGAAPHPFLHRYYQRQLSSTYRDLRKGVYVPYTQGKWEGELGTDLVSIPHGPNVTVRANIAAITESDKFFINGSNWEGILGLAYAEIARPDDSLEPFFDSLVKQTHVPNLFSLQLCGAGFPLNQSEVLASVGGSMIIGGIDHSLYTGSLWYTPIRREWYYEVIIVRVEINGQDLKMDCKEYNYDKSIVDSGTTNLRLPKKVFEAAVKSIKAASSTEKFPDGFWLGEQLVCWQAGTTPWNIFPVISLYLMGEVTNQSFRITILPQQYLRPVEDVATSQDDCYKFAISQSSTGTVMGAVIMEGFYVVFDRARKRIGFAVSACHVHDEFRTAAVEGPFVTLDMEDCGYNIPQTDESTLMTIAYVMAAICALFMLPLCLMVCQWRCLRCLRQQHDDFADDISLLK
Procedure: (§1) In Vitro Enzymatic BACE1 and BACE2 FRET (Fluorescence Resonance Energy Transfer) Assays […] These recombinant proteins were further purified using Ni-NTA affinity chromatography (Qiagen). […] The assay was effectively started by the addition of FRET substrate (50 nM) and the combination was incubated for one hour. The FRET assay was terminated by the addition of tris buffer, which raised the pH to neutrality, and the fluorescence was determined. The FRET substrate was a peptide with commercially available fluorophore and quencher, on opposite sides of the BACE cleavage site. The specific FRET substrate used in this assay was made by Amgen in-house. Commercially available FRET substrates, for example, the FRET substrate offered with the BACE1 FRET Assay Kit sold by ThermoFisher Scientific (Catalog Number P2985), may be used in this assay with the appropriate modifications, which are within the purview of the ability of a person with ordinary skill in the art. Proteolytic cleavage of the FRET substrate released quenching of fluorescence (excitation 488 nm and emission 590 nm).

human recombinant BACE2 = human recombinant BACE2 (Homo sapiens (Human), UniProt Q9Y5Z0); experiment: In vitro enzymatic BACE2 FRET assay; assay type: biochemical; details: read-out: BACE2 Enzyme IC50
human recombinant BACE2, sequence (Q9Y5Z0 63-518): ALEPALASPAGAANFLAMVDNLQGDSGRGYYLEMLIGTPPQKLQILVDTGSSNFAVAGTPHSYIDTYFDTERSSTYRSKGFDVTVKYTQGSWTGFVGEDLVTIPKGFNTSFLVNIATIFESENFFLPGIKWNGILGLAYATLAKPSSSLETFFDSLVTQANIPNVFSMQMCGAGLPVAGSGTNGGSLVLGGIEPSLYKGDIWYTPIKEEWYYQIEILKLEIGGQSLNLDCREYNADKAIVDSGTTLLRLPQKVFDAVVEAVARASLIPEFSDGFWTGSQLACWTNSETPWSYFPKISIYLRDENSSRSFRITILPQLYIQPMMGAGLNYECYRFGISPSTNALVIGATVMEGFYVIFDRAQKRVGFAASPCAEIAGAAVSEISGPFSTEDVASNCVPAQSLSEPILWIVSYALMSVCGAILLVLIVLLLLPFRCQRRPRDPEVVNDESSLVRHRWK
Procedure: as §1

Recombinant CatD = Recombinant CatD (Homo sapiens (Human), UniProt P07339); experiment: In vitro enzymatic Cathepsin D (CatD) FRET assay; assay type: biochemical; details: read-out: Cat D Enzyme IC50
Recombinant CatD, sequence (P07339 65-412): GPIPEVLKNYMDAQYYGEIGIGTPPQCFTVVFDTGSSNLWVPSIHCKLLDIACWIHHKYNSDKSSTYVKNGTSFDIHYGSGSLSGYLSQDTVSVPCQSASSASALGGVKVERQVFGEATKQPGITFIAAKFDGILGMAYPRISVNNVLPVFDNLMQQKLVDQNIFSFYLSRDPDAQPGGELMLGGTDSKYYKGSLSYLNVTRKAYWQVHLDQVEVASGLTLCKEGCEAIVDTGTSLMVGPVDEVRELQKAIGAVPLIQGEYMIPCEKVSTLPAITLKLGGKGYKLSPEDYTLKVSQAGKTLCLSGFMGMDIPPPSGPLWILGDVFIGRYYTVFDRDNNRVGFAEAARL
Procedure: In Vitro Enzymatic Cathepsin D (CatD) FRET Assay Recombinant CatD was expressed in CHO cells. The assay buffer for CatD was 0.05 M citrate pH 3.5, 10% DMSO final, 5 mM CHAPS. […] The assays was effectively started by the addition of different FRET substrates (20 nM for CatD) and the combination was incubated for one hour. The FRET assay was terminated with by addition of tris buffer, which raises the pH to neutrality, and the fluorescence was determined. The FRET substrate was a peptide with commercially available fluorophore and quencher, on opposite sides of the CatD cleavage site. The CatD substrate peptide sequence was based on sequence #1 of Table 1 from Gulnik et al., FEBS Lett. 413(2):379-384 (1997). Proteolytic cleavage of the FRET substrate released quenching of fluorescence (CatD excitation 500 nm and emission 580 nm). The in vitro CatD FRET assay data for each of the Examples is provided in Table 2, conducted by the first procedure described above. […] Thus, with this surprising selectivity profile, the compounds provided herein are believed to minimize, reduce or completely eliminate any risk of retinal atrophy and abnormal development of the eye and of the retinal pigmented epithelium as it relates to the normal function and activity of CatD.

N#Cc1cnc(/C(F)=C/c2ccc(F)c([C@]34CN(c5ncc(F)cn5)C[C@H]3CSC(N)=N4)c2)cn1 [Example 111, 5-((Z)-2-(3-((4aR,7aS)-2-amino-6-(5-fluoropyrimidin-2-yl)-4,4a,5,6,7,7a-hexahydropyrrolo[3,4-d][1,3]thiazin-7a-yl)-4-fluorophenyl)-1-fluorovinyl)pyrazine-2-carbonitrile]
pIC50 [1]: 9.09
pIC50 (human recombinant BACE1): 9.49
pIC50 (human recombinant BACE2): 8.29
pIC50 (Recombinant CatD): 4.71

NC1=N[C@@]2(c3cc(/C=C(\F)c4cnc(OCC(F)(F)C(F)F)cn4)ccc3F)CN(c3ncc(F)cn3)C[C@H]2CS1 [Example 112, (4aR,7aS)-7a-(2-fluoro-5-((Z)-2-fluoro-2-(5-(2,2,3,3-tetrafluoropropoxy)pyrazin-2-yl)vinyl)phenyl)-6-(5-fluoropyrimidin-2-yl)-4,4a,5,6,7,7a-hexahydropyrrolo[3,4-d][1,3]thiazin-2-amine]
IC50 [1]: 0.02 µM
pIC50 (human recombinant BACE1): 6.97
pIC50 (human recombinant BACE2): 6.87
pIC50 (Recombinant CatD): 5.88

NC1=N[C@@]2(c3cc(/C=C(\F)c4ncc(C(F)(F)F)cc4Cl)ccc3F)CO[C@H](C(F)(F)F)[C@H]2CS1 [Example 137, (4aS,5S,7aS)-7a-(5-((Z)-2-(3-chloro-5-(trifluoromethyl)pyridin-2-yl)-2-fluorovinyl)-2-fluorophenyl)-5-(trifluoromethyl)-4a,5,7,7a-tetrahydro-4H-furo[3,4-d][1,3]thiazin-2-amine]
pIC50 [1]: 6.70
pIC50 (human recombinant BACE1): 7.82
pIC50 (human recombinant BACE2): 6.22
pIC50 (Recombinant CatD): 3.42

C#CCOc1cnc(/C(F)=C/c2ccc(F)c([C@]34CN(C(=O)OC(C)(C)C)C[C@H]3CSC(N)=N4)c2)cn1 [Example 116, (4aR,7aS)-tert-butyl 2-amino-7a-(2-fluoro-5-((Z)-2-fluoro-2-(5-(prop-2-yn-1-yloxy)pyrazin-2-yl)vinyl)phenyl)-4a,5,7,7a-tetrahydropyrrolo[3,4-d][1,3]thiazine-6(4H)-carboxylate]
IC50 [1]: 0.00188 µM
pIC50 (human recombinant BACE1): 8.60
pIC50 (human recombinant BACE2): 7.28
pIC50 (Recombinant CatD): 4.54

C#CCOc1cnc(/C(F)=C/c2ccc(F)c([C@]34CO[C@H](C(F)(F)F)[C@H]3CSC(N)=N4)c2)cn1 [Example 127, (4aS,5S,7aS)-7a-(2-fluoro-5-((Z)-2-fluoro-2-(5-(prop-2-ynyloxy)pyrazin-2-yl)vinyl)phenyl)-5-(trifluoromethyl)-4a,5,7,7a-tetrahydro-4H-furo[3,4-d][1,3]thiazin-2-amine]
IC50 [1]: 0.0243 µM
pIC50 (human recombinant BACE1): 6.99
pIC50 (human recombinant BACE2): 5.54
pIC50 (Recombinant CatD): 3.80

N#Cc1ccc(/C(F)=C/c2ccc(F)c([C@]34CO[C@H](C(F)(F)F)[C@H]3COC(N)=N4)c2)nc1 (single isomer, unassigned) [Example 142]
pIC50 [1]: 7.23
pIC50 (human recombinant BACE1): 7.43
pIC50 (human recombinant BACE2): 5.45
pIC50 (Recombinant CatD): < 3.40

C#CCOc1cnc(/C(F)=C/c2ccc(F)c([C@]34CN(C(=O)OCC)C[C@H]3CSC(N)=N4)c2)cn1 [Example 123, (4aR,7aS)-ethyl 2-amino-7a-(2-fluoro-5-((Z)-2-fluoro-2-(5-(prop-2-yn-1-yloxy)pyrazin-2-yl)vinyl)phenyl)-4a,5,7,7a-tetrahydropyrrolo[3,4-d][1,3]thiazine-6(4H)-carboxylate]
IC50 [1]: 0.00478 µM
pIC50 (human recombinant BACE1): 8.35
pIC50 (human recombinant BACE2): 6.67
pIC50 (Recombinant CatD): 4.44

C#CCOc1cnc(/C(F)=C/c2ccc(F)c([C@]34CN(c5ncc(F)cn5)C[C@H]3CSC(N)=N4)c2)cn1 (stereo in doubt) [Example 109, (4aR,7aS)-7a-(2-fluoro-5-((Z)-2-fluoro-2-(5-(prop-2-yn-1-yloxy)pyrazin-2-yl)vinyl)phenyl)-6-(5-fluoropyrimidin-2-yl)-4,4a,5,6,7,7a-hexahydropyrrolo[3,4-d][1,3]thiazin-2-amine]
pIC50 [1]: 9.51
pIC50 (human recombinant BACE1): 9.83
pIC50 (human recombinant BACE2): 8.26
pIC50 (Recombinant CatD): 5.12

N#Cc1cnc(/C(F)=C/c2ccc(F)c([C@]34CO[C@H](C(F)(F)F)[C@H]3CSC(N)=N4)c2)c(Cl)c1 [Example 140, 6-((Z)-2-(3-((4aS,5S,7aS)-2-amino-5-(trifluoromethyl)-4a,5,7,7a-tetrahydro-4H-furo[3,4-d][1,3]thiazin-7a-yl)-4-fluorophenyl)-1-fluorovinyl)-5-chloronicotinonitrile]
pIC50 [1]: 7.32
pIC50 (human recombinant BACE1): 8.06
pIC50 (human recombinant BACE2): 6.66
pIC50 (Recombinant CatD): 3.48

C#CCOc1cnc(/C(F)=C/c2ccc(F)c([C@]34CN(C(=O)OC(C)C)C[C@H]3CSC(N)=N4)c2)cn1 [Example 124, (4aR,7aS)-isopropyl 2-amino-7a-(2-fluoro-5-((Z)-2-fluoro-2-(5-(prop-2-yn-1-yloxy)pyrazin-2-yl)vinyl)phenyl)-4a,5,7,7a-tetrahydropyrrolo[3,4-d][1,3]thiazine-6(4H)-carboxylate]
IC50 [1]: 0.00269 µM
pIC50 (human recombinant BACE1): 8.58
pIC50 (human recombinant BACE2): 7.04
pIC50 (Recombinant CatD): 4.62

CC#CCOc1cnc(/C(F)=C/c2ccc(F)c([C@]34CN(c5ncc(F)cn5)C[C@H]3CSC(N)=N4)c2)cn1 [Example 117, (4aR,7aS)-7a-(5-((Z)-2-(5-(but-2-yn-1-yloxy)pyrazin-2-yl)-2-fluorovinyl)-2-fluorophenyl)-6-(5-fluoropyrimidin-2-yl)-4,4a,5,6,7,7a-hexahydropyrrolo[3,4-d][1,3]thiazin-2-amine]
pIC50 [1]: 9.42
pIC50 (human recombinant BACE1): 9.54
pIC50 (human recombinant BACE2): 8.55
pIC50 (Recombinant CatD): 4.88

NC1=N[C@@]2(c3cc(/C=C(\F)c4ccc(Cl)cn4)ccc3F)CN(c3ncc(F)cn3)C[C@H]2CS1 [Example 101, (4aR,7aS)-7a-(5-((Z)-2-(5-chloropyridin-2-yl)-2-fluorovinyl)-2-fluorophenyl)-6-(5-fluoropyrimidin-2-yl)-4,4a,5,6,7,7a-hexahydropyrrolo[3,4-d][1,3]thiazin-2-amine]
pIC50 [1]: 8.71
pIC50 (human recombinant BACE1): 8.73
pIC50 (human recombinant BACE2): 8.99
pIC50 (Recombinant CatD): 4.31

N#Cc1ccc(/C(F)=C/c2ccc(F)c([C@]34CN(c5ncc(F)cn5)C[C@H]3CSC(N)=N4)c2)nc1 [Example 102, 6-((Z)-2-(3-((4aR,7aS)-2-amino-6-(5-fluoropyrimidin-2-yl)-4,4a,5,6,7,7a-hexahydropyrrolo[3,4-d][1,3]thiazin-7a-yl)-4-fluorophenyl)-1-fluorovinyl)nicotinonitrile]
pIC50 [1]: 9.17
pIC50 (human recombinant BACE1): 9.62
pIC50 (human recombinant BACE2): 8.51
pIC50 (Recombinant CatD): 3.93

NC1=N[C@@]2(c3cc(/C=C(\F)c4cnc(OCC(F)F)cn4)ccc3F)CN(c3ncc(F)cn3)C[C@H]2CS1 [Example 113, (4aR,7aS)-7a-(5-((Z)-2-(5-(2,2-difluoroethoxy)pyrazin-2-yl)-2-fluorovinyl)-2-fluorophenyl)-6-(5-fluoropyrimidin-2-yl)-4,4a,5,6,7,7a-hexahydropyrrolo[3,4-d][1,3]thiazin-2-amine]
pIC50 [1]: 8.03
pIC50 (human recombinant BACE1): 7.65
pIC50 (human recombinant BACE2): 7.42
pIC50 (Recombinant CatD): 4.58

Cc1cc(C#N)cnc1/C(F)=C/c1ccc(F)c([C@]23CO[C@H](C(F)(F)F)[C@H]2CSC(N)=N3)c1 [Example 138, 6-((Z)-2-(3-((4aS,5S,7aS)-2-amino-5-(trifluoromethyl)-4a,5,7,7a-tetrahydro-4H-furo[3,4-d][1,3]thiazin-7a-yl)-4-fluorophenyl)-1-fluorovinyl)-5-methylnicotinonitrile]
pIC50 [1]: 6.94
pIC50 (human recombinant BACE1): 7.57
pIC50 (human recombinant BACE2): 5.94
pIC50 (Recombinant CatD): < 3.40

Source: patent publication US11548903B2, “Bicyclic thiazine and oxazine derivatives as beta-secretase inhibitors and methods of use” (AMGEN INC., priority 2016, dated 2023)
